Structures are written as SMILES.

This passage reports IC50 results from patent publication US10399980B2, “Purinones as ubiquitin-specific protease 1 inhibitors” (FORMA Therapeutics, Inc., priority 2015, dated 2019).

Sequence of USP1, construct USP1 (1-785, GG670, 671AA)/UAF1 (1-677)-Flag (O94782 whole entry G670A/G671A): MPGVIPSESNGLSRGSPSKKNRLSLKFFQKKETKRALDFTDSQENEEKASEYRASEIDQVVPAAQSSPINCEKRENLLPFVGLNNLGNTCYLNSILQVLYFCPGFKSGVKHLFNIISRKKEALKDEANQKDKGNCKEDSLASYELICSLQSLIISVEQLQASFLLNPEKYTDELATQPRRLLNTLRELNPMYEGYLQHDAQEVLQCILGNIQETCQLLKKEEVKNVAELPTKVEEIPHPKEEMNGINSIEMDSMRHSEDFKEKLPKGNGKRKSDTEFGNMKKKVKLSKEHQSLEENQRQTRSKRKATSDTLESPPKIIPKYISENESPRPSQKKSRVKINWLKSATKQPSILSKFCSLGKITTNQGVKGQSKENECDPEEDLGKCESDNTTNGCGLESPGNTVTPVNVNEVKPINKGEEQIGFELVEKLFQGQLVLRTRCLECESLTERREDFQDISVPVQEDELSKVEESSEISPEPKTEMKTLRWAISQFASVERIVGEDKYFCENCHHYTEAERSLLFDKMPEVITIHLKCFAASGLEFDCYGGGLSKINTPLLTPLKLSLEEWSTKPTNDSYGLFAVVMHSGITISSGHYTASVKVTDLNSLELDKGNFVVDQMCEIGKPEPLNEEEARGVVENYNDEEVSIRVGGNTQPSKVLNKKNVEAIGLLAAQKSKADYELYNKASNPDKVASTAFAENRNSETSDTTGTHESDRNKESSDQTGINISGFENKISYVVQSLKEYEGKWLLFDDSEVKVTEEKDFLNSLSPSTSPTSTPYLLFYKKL
Sequence of USP1, construct USP1 (1-785, GG670, 671AA)/UAF1 (1-677)-Flag (Q8TAF3 whole entry partner): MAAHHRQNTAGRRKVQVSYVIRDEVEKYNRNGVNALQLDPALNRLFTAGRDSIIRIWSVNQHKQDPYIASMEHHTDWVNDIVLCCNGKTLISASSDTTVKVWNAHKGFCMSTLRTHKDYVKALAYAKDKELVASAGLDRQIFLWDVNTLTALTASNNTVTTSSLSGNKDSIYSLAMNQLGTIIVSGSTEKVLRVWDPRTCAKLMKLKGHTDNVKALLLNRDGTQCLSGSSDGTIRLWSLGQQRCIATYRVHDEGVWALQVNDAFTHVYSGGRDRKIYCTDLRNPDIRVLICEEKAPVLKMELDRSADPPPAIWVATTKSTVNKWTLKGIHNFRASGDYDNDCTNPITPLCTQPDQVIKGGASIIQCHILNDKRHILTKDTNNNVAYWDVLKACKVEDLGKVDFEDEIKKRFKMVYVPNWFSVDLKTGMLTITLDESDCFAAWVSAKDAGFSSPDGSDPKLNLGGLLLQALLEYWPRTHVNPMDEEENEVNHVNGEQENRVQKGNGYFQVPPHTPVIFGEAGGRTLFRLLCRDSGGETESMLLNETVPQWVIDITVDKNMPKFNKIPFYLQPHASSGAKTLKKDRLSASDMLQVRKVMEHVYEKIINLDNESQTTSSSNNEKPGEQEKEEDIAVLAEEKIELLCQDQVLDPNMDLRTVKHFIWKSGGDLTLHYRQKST

The target of this test is USP1, construct USP1 (1-785, GG670, 671AA)/UAF1 (1-677)-Flag (Homo sapiens (Human), UniProt O94782, G670A/G671A). In words: Ubiquitin-Rhodamine 110 assay for USP1 activity, follow-up IC50 studies. The class given is biochemical. Particulars: USP1/UAF1, 30 min preincubation. The protocol:
Example 53: Ubitquin-Rhodamine 110 Assay for USP1 Activity
Nanoliter quantities of either an 8-point or 10-point, 3-fold serial dilution in DMSO was pre-dispensed into assay plates (Perkin Elmer, ProxiPlate-384 F Plus, #6008269) for a final test concentration range of either 25 μM to 11 nM or 25 μM to 1.3 nM, respectively. The final concentration of the enzyme (USP1, construct USP1 (1-785, GG670, 671AA)/UAF1 (1-677)-Flag; Viva) in the assay was 25 pM. Final substrate (Ub-Rh110; Ubiquitin-Rhodamine 110, R&D Systems #U-555) concentration was 25 nM with [Ub-Rh110]<<Km. […] Plates were incubated stacked for 20 minutes at room temperature before 5 μL of stop solution (final concentration of 10 mM citric acid in assay buffer (Sigma, #251275-500G)). Fluorescence was read on the Envision (Excitation at 485 nm and Emission at 535 nm; Perkin Elmer) or on the PheraSTAR (Excitation at 485 nm and Emission at 535 nm; BMG Labtech).
For both assay formats data were reported as percent inhibition compared with control wells based on the following equation: % inh=[1−((FLU−AveLow)/(AveHigh−AveLow))]×100 where FLU=measured Fluorescence, AveLow=average Fluorescence of no enzyme control (n=16), and AveHigh=average Fluorescence of DMSO control (n=16). IC50 values were determined by curve fitting of the standard 4 parameter logistic fitting algorithm included in the Activity Base software package: IDBS XE Designer Model205. Data is fitted using the Levenburg Marquardt algorithm.
In the case of `Cn1cc(C(F)(F)F)nc1-c1ccc(Cn2c(=O)n(C)c3cnc(-c4ccccc4C4CC4)nc32)cc1` [I-70, 2-(2-cyclopropylphenyl)-7-methyl-9-(4-(1-methyl-4-(trifluoromethyl)-1H-imidazol-2-yl)benzyl)-7,9-dihydro-8H-purin-8-one], the concentration for half-maximal inhibition (IC50) (commonly the point on the concentration scale where inhibition reaches its midpoint) is less than 50 nM.
On to `Cc1cc(C)n([C@H]2CC[C@@H](Cn3c(=O)n(C)c4cnc(-c5ccccc5C(C)C)nc43)CC2)n1` [I-111, 9-(((1s,4s)-4-(3,5-dimethyl-1H-pyrazol-1-yl)cyclohexyl)methyl)-2-(2-isopropylphenyl)-7-methyl-7,9-dihydro-8H-purin-8-one], for which the 50% inhibitory concentration (IC50) was in the range of 50 to 200 nM.
Molecule `Cc1cc(C)n([C@H]2CC[C@H](Cn3c(=O)[nH]c4cnc(-c5ccccc5C(C)C)nc43)CC2)n1` [I-213, 9-(((1r,4r)-4-(3,5-dimethyl-1H-pyrazol-1-yl)cyclohexyl)methyl)-2-(2-isopropylphenyl)-7,9-dihydro-8H-purin-8-one] had an IC50 of 200 to 2000 nM.
